Experimental data from patent US9034819B2, “Method of lowering cholesterol and triglycerides by administering exendins” (Amylin Pharmaceuticals, LLC, priority 2008, dated 2015).

How the values were obtained:
Assay type in all cases: in vivo, human
fasting triglycerides = assay: Fasting triglycerides, 30 week study in patients with Type 2 diabetes; settings: decrease from baseline to week 30; SC; once weekly 2 mg or twice daily 10 μg
Procedure: (§1) The pharmacokinetics of a long-acting release formulation of exenatide was evaluated in a study in patients with Type 2 diabetes. The study population consisted of individuals with type 2 diabetes treated with a stable regimen of oral diabetes medications or managed with diet modification and exercise. […] The 30 week study compared a 10 μg formulation of exenatide administered twice daily (BTD) by subcutaneous (SC) injection and a 2 mg formulation of exenatide administered once weekly by subcutaneous (SC) injection. The study was also conducted, inter alia, to examine the effects of such administration on the individual's total cholesterol, LDL-cholesterol, HDL-cholesterol, triglyceride levels, hemoglobin A1C, fasting postprandial blood glucose, and weight. […]
(§2) Exenatide once weekly is a sustained-release formulation of exenatide (exendin-4) designed to provide exenatide release over a period ranging from 7 to 91 days. […] The vial containing the white to off-white dry powder (2.8 mg of exenatide once weekly) was stored frozen in a freezer with a recorded temperature at ≦−20±5° C. at the study site.
(§3) Patients were monitored about every four weeks for body weight, vital signs (including blood pressure, heart rate, respiratory rate, and temperature), urinalysis, and adverse events. […]

[1] = tested on: total cholesterol, LDL-cholesterol, HDL-cholesterol; assay: Total, LDL- and HDL-cholesterol, 30 week study in patients with Type 2 diabetes; settings: SC
Procedure: (§4) The pharmacokinetics of a long-acting release formulation of exenatide was evaluated in a study in patients with Type 2 diabetes. The study population consisted of individuals with type 2 diabetes treated with a stable regimen of oral diabetes medications or managed with diet modification and exercise. […] The 30 week study compared a 10 μg formulation of exenatide administered twice daily (BTD) by subcutaneous (SC) injection and a 2 mg formulation of exenatide administered once weekly by subcutaneous (SC) injection. The study was also conducted, inter alia, to examine the effects of such administration on the individual's total cholesterol, LDL-cholesterol, HDL-cholesterol, triglyceride levels, hemoglobin A1C, fasting postprandial blood glucose, and weight.
During the 3-day lead-in period, patients self-administered exenatide 5 μg SC, BID, within 15 minutes prior to meals in the morning and evening. The exenatide 5 μg SC, BID used in the 3-day lead-in period was a clear, colorless, sterile preserved solution for SC injection containing exenatide (exendin-4) in sodium acetate buffer, pH 4.5, 4.3% mannitol as an iso-osmolality modifier and 0.22% metacresol as a preservative. The strength of exenatide injection was 0.25 mg/mL of exendin-4.
During the 30-week treatment period, patients received once weekly subcutaneous injections of a 2.0 mg dose pharmaceutical formulation containing 5% exenatide or patient received twice daily subcutaneous injections of exenatide at 10 μg per dose.
as §2, §3

[2] = Body weight, 30 week study in patients with Type 2 diabetes; settings: weight loss from baseline to week 30, SC, once weekly 2 mg or twice daily 10 μg
Procedure: as §1, §2, §3

hemoglobin A1C = assay: Hemoglobin A1C by HPLC, 30 week study in patients with Type 2 diabetes; settings: decrease from baseline to week 30; SC; once weekly 2 mg or twice daily 10 μg
Procedure: as §1, §2
Plasma exenatide was quantified by a validated Enzyme-Linked Immunosorbent Assay (ELISA) at Millipore (Billerica, Mass.). […] Glycosylated hemoglobin was quantitated by Quintiles Laboratories (Smyrna, Ga.) using high-performance liquid chromatography. […]

blood glucose = assay: Fasting postprandial blood glucose, 30 week study in patients with Type 2 diabetes; settings: decrease from baseline to week 30; SC; once weekly 2 mg or twice daily 10 μg
Procedure: as §4
During the 3-day lead-in period, patients self-administered exenatide 5 μg SC, BID, within 15 minutes prior to meals in the morning and evening. […]
as §2

[3] = decrease from baseline to week 30, once weekly 2 mg or twice daily 10 μg

Substance: exenatide BID: 10 μg formulation of exenatide (exendin-4) administered twice daily by subcutaneous injection
- fasting triglycerides decreased by an average of (fasting triglycerides): 22 mg/dL
- HDL-cholesterol decreased by an average of [1, 3]: 1.3 mg/dL
- total cholesterol decreased by an average of [1, 3]: 3.8 mg/dL
- LDL-cholesterol increased by an average of ([1]; increase from baseline to week 30, twice daily 10 μg): 1.2 mg/dL
- body weight decreased by an average of (weight loss) [2]: about 3.6 kg
- body weight decreased by an average of (weight loss) ([2]; listed as exenatide twice daily): 3.6 kg
- HbA1C decreased by an average of (hemoglobin A1C): 1.5%
- fasting postprandial blood glucose decreased by an average of (blood glucose): 25 mg/dL
